Reference: ChEMBL document CHEMBL5729281, “Dihydrooxadiazinones” (2022)

Key:
[1] = molecular target: cGMP-inhibited 3',5'-cyclic phosphodiesterase 3A (Homo sapiens, UniProt Q14432); experiment: (§1) PDE3A Enzyme Inhibition: The commercially available 3H-cAMP Scintillation Proximity Assay (SPA, Perkin Elmer) system was used for enzyme inhibition studies. For the determination of the in vitro effect of example compounds on the PDE3A reactions 2 μl of the respective example compound solution in DMSO (serial dilutions) were placed in wells of microtiter plates (Isoplate-96/200W; Perkin Elmer). 50 μl of a dilution of PDE3A cell extract from Sf9 cells overexpressing human full length PDE3A (SB Drug Discovery, UK) in buffer A (50 mM Tris/HCl pH 7.5, 8.3 mM MgCl2, 1.7 mM EDTA, 0.2% BSA) was added. The dilution of the PDE3A cell extract was chosen such that the reaction kinetics was linear and less than 70% of the substrate was consumed (typical dilution 1:5000). The reaction was started by addition of 50 μl (0.025 μCi) of 1:2000 in buffer A w/o BSA diluted substrate [8-3H]adenosine 3′, 5′-cyclic phosphate (1 μCi/μl; Perkin Elmer). After incubation at room temperature for 60 min, the reaction was stopped by addition of 25 μl of a suspension containing 18 mg/ml yttrium scintillation proximity beads (Perkin Elmer) in water. The microtiter plates were sealed and measured in a Microbeta scintillation counter (PerkinElmer Wallac). IC50 values were determined from sigmoidal curves by plotting percentage PDE3A activity vs log compound concentration.
cGMP-inhibited 3',5'-cyclic phosphodiesterase 3A, sequence (Q14432 whole entry): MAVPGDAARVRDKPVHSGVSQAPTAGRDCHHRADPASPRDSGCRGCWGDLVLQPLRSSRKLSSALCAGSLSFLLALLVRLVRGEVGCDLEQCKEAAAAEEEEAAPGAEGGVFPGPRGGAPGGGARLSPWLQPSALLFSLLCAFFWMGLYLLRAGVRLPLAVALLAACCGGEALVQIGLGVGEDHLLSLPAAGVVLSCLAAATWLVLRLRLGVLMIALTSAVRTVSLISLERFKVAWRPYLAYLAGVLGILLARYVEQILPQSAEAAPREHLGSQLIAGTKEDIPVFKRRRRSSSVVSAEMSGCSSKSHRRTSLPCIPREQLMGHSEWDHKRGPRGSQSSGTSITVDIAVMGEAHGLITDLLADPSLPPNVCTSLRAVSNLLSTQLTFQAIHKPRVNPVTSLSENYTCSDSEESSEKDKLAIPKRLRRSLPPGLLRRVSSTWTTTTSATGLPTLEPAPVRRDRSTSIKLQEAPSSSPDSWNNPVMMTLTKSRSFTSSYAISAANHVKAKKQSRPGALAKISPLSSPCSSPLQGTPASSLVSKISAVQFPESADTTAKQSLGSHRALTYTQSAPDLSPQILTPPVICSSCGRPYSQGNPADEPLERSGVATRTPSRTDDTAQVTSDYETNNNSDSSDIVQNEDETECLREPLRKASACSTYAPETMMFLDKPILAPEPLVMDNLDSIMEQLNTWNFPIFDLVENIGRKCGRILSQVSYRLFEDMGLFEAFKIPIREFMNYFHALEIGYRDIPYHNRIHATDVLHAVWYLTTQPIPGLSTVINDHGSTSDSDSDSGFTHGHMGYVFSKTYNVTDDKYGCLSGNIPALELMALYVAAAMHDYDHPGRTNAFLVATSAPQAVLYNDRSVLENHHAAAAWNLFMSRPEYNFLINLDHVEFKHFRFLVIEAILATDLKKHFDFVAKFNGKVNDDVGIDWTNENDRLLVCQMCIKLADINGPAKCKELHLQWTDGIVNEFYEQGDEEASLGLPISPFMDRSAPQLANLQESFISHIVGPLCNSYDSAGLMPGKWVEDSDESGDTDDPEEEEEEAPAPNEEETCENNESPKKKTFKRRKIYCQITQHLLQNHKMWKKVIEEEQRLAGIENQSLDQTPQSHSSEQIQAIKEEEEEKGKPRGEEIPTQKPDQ

[2] = molecular target: cGMP-inhibited 3',5'-cyclic phosphodiesterase 3B (Homo sapiens, UniProt Q13370); experiment: as §1, with “PDE3B” for “PDE3A”, “1:6000).” for “1:5000).”
cGMP-inhibited 3',5'-cyclic phosphodiesterase 3B, sequence (Q13370 whole entry): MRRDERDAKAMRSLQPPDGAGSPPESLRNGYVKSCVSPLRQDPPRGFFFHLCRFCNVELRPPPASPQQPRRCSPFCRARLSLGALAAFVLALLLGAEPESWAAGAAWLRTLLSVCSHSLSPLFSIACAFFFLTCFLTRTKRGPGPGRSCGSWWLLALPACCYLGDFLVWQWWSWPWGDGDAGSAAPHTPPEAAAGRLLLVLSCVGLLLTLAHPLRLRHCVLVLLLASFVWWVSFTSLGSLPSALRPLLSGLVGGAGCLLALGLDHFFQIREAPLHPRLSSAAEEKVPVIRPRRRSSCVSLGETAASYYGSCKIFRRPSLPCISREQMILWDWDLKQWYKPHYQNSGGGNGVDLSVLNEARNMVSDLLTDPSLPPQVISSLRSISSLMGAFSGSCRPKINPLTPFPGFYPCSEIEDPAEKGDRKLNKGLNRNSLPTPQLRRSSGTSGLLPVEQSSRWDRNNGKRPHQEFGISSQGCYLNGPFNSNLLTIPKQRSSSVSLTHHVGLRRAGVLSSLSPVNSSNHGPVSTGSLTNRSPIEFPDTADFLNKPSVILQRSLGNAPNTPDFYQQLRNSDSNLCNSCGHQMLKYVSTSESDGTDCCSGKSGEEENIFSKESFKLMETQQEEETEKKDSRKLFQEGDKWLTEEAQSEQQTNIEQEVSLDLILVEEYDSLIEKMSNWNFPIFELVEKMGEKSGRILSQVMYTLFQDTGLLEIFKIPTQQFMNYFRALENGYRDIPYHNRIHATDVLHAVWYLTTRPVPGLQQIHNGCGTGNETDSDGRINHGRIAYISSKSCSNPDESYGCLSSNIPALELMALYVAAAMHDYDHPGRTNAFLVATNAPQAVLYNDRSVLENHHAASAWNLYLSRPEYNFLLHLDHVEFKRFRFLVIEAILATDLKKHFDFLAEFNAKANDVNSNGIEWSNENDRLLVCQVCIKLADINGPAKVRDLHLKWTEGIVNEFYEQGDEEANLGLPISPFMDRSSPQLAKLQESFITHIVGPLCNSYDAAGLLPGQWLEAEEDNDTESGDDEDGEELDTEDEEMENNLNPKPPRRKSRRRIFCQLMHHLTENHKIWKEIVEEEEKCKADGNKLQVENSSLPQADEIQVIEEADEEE

Row | IC50 [1] [nM] | IC50 [2] [nM] | SMILES
1 | 20 | 23 | C[C@@H]1OC(=O)NN=C1c1ccc(N2CC(F)(F)C2)c(C(F)(F)F)c1
2 | 110 | 44 | Cc1cc(C2=NNC(=O)OC2)ccc1-c1cccnc1
3 | 657 | 383 | C[C@@H]1OC(=O)NN=C1c1ccc(-n2ccc(C(F)(F)F)n2)c(C(F)(F)F)c1
4 | 11 | 9 | C[C@@H]1OC(=O)NN=C1c1ccc(N2CC(C)(O)C2)c(C(F)(F)F)c1
